Like-named read-outs stand apart in the source and are kept apart here.
Experiments:
[1] = in vivo, 10 mg/kg
Machupo virus = assay type: cell-based; conditions: read-out: Machupo (Plaque reduction) EC50
[2] = in vivo
[3] = system: ST-336 drug resistant Tacaribe virus variants (DR#1-4); assay type: cell-based
[4] = mouse, in vivo, ip, 100 mg/kg/day
Tacaribe virus [5] = assay type: cell-based; conditions: read-out: Tacaribe (Plaque reduction) EC50
Junin virus = assay type: cell-based; conditions: read-out: Junin (Plaque reduction) EC50
Tacaribe virus [6] = system: Tacaribe virus; design: species or system BALB/c mice; conditions: mouse, in vivo
[7] = system: S. typhimurium tester strains TA7007, TA7006 and TA98
Guanarito virus = assay type: cell-based; conditions: read-out: Guanarito (Plaque reduction) EC50
Tacaribe virus [8] = assay type: cell-based; conditions: for EC50: read-out: Tacaribe (CPE) EC50
Ebola virus = assay type: cell-based; conditions: read-out: Ebola (CPE) EC50
Rotavirus = assay type: cell-based; conditions: read-out: Rotavirus (CPE) EC50
intact Tacaribe virion [9] = assay type: binding, Tacaribe virus
Lassa virus = assay type: cell-based; conditions: read-out: Lassa (plaque reduction) EC50
SARS-CoV = assay type: cell-based; conditions: read-out: SARS (CPE) EC50
intact Tacaribe virion [10] = assay type: binding, Tacaribe virus; remark: listed apart in the source
Amapari virus = assay type: cell-based; conditions: read-out: Amapari (CPE) EC50
HSV-1 = assay type: cell-based, herpes simplex virus 1; conditions: read-out: HSV-1 (CPE) EC50
Tacaribe virus [11] = assay type: cell-based
CMV = assay type: cell-based, cytomegalovirus; conditions: read-out: CMV (Elisa) EC50
RSV-A = assay type: cell-based, Respiratory syncytial virus; conditions: read-out: RSV-A (CPE) EC50
vaccinia virus = assay type: cell-based; conditions: read-out: Vaccinia (CPE) EC50
LCMV = assay type: cell-based, lymphocytic choriomeningitis virus; conditions: read-out: LCMV (Elisa) EC50
Candid-1 vaccine virus = assay type: cell-based, Junin virus (vaccine strain); conditions: read-out: Candid1 (CPE) EC50
[12] = in vivo; remark: listed apart in the source

CC(NC(=O)NNS(=O)(=O)c1ccc(OC(F)F)cc1)(C(F)(F)F)C(F)(F)F [ST-294, N-2-(1,1,1,3,3,3-hexafluoro-1-methylpropyl)-2-[(4-difluoromethoxyphenyl)sulfonyl]hydrazine-1-carboxamide]
PK (newborn mouse/IP) Cmax [1]: 2910 ng/mL
PK (newborn mouse/IP) ½ life [1]: 3 h
EC50 (Machupo virus): 300 nM
PK (rat/oral) ½ life [2]: 2 h
Cmax (serum levels) ([2]; rat, po): 6670 ng/mL
susceptibility of drug resistant Tacaribe mutants (DR#1-4) [3]: cross-resistance
tolerability [4]: well tolerated
EC50 (Tacaribe virus [5]): 100 nM
EC50 (Junin virus): 300 nM
CC50 (Vero cells): > 50000 nM
efficacy (survival, delay in death) (Tacaribe virus [6]): showed efficacy
Genotoxicity (Ames test) [7]: negative
EC50 (Guanarito virus): 1000 nM
in vitro antiviral concentration required to inhibit Tacaribe virus CPE (EC50) (Tacaribe virus [8]): 0.066 µg/mL
EC50 (Tacaribe virus [8]): 120 nM

CCC(NC(=O)NNS(=O)(=O)c1ccc(C)cc1)(C(F)(F)F)C(F)(F)F [ST-336]
EC50 (Machupo virus): 150 nM
EC50 (Ebola virus): > 20000 nM
EC50 (Rotavirus): > 20000 nM
binding to intact virus (serial dilution) (intact Tacaribe virion [9]): binds with at least a slow Koff to intact protein present on Tacaribe virus
growth of ST-336 DR isolates in the presence of compound [3]: unaffected
EC50 (Tacaribe virus [5]): 100 nM
EC50 (Lassa virus): > 20000 nM
EC50 (SARS-CoV): > 20000 nM
EC50 (Junin virus): 150 nM
binding to intact virions (dialysis) (intact Tacaribe virion [10]): binds intact virions with a very slow dissociation constant
EC50 (Amapari virus): > 20000 nM
EC50 (HSV-1): > 20000 nM
effect on Tacaribe virus yield (Tacaribe virus [11]): no effect on virus yield
effect on Tacaribe virus yield by time of addition (Tacaribe virus [11]): exerted its inhibitory effect only at the very early stage in the virus life cycle
EC50 (CMV): > 20000 nM
EC50 (RSV-A): > 20000 nM
EC50 (vaccinia virus): > 20000 nM
EC50 (Guanarito virus): 300 nM
EC50 (Tacaribe virus [8]): 55 nM
EC90 (Tacaribe virus [8]; read-out: Tacaribe (CPE) EC90): 125 nM
EC50 (LCMV): > 20000 nM
EC50 (Candid-1 vaccine virus): 62 nM
pharmacokinetic (PK) properties in rodents [12]: poor pharmacokinetic (PK) properties

From patent US8658697B2 (priority 2004, dated 2014)
